Data from US9884130B2, “Compositions for delivery of oral comfort sensations” (The Procter & Gamble Company, priority 2013, dated 2018).
Where a name gives a salt, the structure may show the parent alone. Read-outs that look alike come from different tables or passages of the source. Values belong to the molecule of their own block, whether it stands above or below them.

What was measured:
mouse TREK-1 (mTREK-1t) = target: T1, mouse TREK-1 (mTREK-1t) (Mus musculus, UniProt P97438); assay: FLIPR membrane potential assay in HEK-293 cells stably transfected with mTREK-1t; type: cell-based; details: for activation at 0.0005 %: HEK293, Sample Conc. 0.0005%; for activation at 0.0005 % / activation at 0.001 % / activation at 0.0021 % / activation at 0.0042 % / activation at 0.0083 % / activation at 0.0167 % / activation at 0.033 %: read-out: Activity Level (percentage of activity relative to 100% with 50 mM potassium nitrate); for activation at 0.001 %: HEK293, Sample Conc. 0.0010%; for activation at 0.0021 %: HEK293, Sample Conc. 0.0021%; for activation at 0.0042 %: HEK293, Sample Conc. 0.0042%; for activation at 0.0083 %: HEK293, Sample Conc. 0.0083%; for activation at 0.0167 %: HEK293, Sample Conc. 0.0167%; for activation at 0.033 %: HEK293, Sample Conc. 0.0330%
T1 construct: (mTREK-1t) by Capital Biosciences (Rockville, Md.)
T1 sequence (P97438 with tags, fused parts or gaps limits assumed): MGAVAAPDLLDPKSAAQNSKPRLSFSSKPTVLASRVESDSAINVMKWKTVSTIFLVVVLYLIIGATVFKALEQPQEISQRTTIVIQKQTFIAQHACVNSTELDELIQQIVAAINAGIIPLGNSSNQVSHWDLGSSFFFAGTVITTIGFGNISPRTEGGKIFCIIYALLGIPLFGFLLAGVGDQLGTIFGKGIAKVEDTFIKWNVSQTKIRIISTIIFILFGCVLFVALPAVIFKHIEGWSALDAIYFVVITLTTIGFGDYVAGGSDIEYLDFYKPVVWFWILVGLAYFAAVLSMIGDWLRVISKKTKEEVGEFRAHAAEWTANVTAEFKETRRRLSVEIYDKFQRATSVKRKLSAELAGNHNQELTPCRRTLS

[1] = concentration level where the cooling effect can be clearly recognized; cited from earlier work
[2] = sample concentration 50 μM, relative to 50 mM potassium nitrate
[3] = sample concentration 100 μM, relative to 50 mM potassium nitrate
[4] = sample concentration 200 μM, relative to 50 mM potassium nitrate

activation at 0.0005 % (mouse TREK-1 (mTREK-1t)): 0%
activation at 0.001 % (mouse TREK-1 (mTREK-1t)): 0%
activation at 0.0021 % (mouse TREK-1 (mTREK-1t)): 0%
activation at 0.0042 % (mouse TREK-1 (mTREK-1t)): 0%
activation at 0.0083 % (mouse TREK-1 (mTREK-1t)): 0.51%
activation at 0.0167 % (mouse TREK-1 (mTREK-1t)): 2.66%
activation at 0.033 % (mouse TREK-1 (mTREK-1t)): 12.2%
Molecule: CCCOC(=O)CCCCC(=O)OCCC [Dipropyl Adipate]

Molecule: CC(C)[C@@H]1CC[C@@H](C)C[C@H]1O [L- Menthol]
cooling threshold [1]: about 800 ppb

percentage of TREK-1 activity relative to potassium nitrate (mouse TREK-1 (mTREK-1t); Sample Concentration 0.0005%): 2.35%
percentage of TREK-1 activity relative to potassium nitrate (mouse TREK-1 (mTREK-1t); Sample Concentration 0.0010%): 2.33%
percentage of TREK-1 activity relative to potassium nitrate (mouse TREK-1 (mTREK-1t); Sample Concentration 0.0021%): 2.66%
percentage of TREK-1 activity relative to potassium nitrate (mouse TREK-1 (mTREK-1t); Sample Concentration 0.0042%): 4.94%
percentage of TREK-1 activity relative to potassium nitrate (mouse TREK-1 (mTREK-1t); Sample Concentration 0.0083%): 8.31%
percentage of TREK-1 activity relative to potassium nitrate (mouse TREK-1 (mTREK-1t); Sample Concentration 0.0167%): 17.4%
percentage of TREK-1 activity relative to potassium nitrate (mouse TREK-1 (mTREK-1t); Sample Concentration […]): 29.43%
Molecule: COC(=O)c1ccccc1O [Methyl Salicylate]

Molecule: O=[N+]([O-])[O-].[K+] [Potassium Nitrate, reference compound]
Activity Level (percentage of activity relative to 100% with 50 mM potassium nitrate) (mouse TREK-1 (mTREK-1t)): 100%
Fluorescence per Sample concentration (percent activity relative to potassium nitrate) (mouse TREK-1 (mTREK-1t)): 100%
percentage of TREK-1 activity relative to potassium nitrate (mouse TREK-1 (mTREK-1t)): 100%

Molecule: CC(C)[C@@H]1CC[C@@H](C)C[C@@H]1O [Sample 1-neomenthol, 1-neomenthol]
cooling threshold [1]: about 3,000 ppb

percentage of TREK-1 activity relative to potassium nitrate (mouse TREK-1 (mTREK-1t); Sample Concentration 0.0005%): 4.57%
percentage of TREK-1 activity relative to potassium nitrate (mouse TREK-1 (mTREK-1t); Sample Concentration 0.0010%): 4.82%
percentage of TREK-1 activity relative to potassium nitrate (mouse TREK-1 (mTREK-1t); Sample Concentration 0.0021%): 3.86%
percentage of TREK-1 activity relative to potassium nitrate (mouse TREK-1 (mTREK-1t); Sample Concentration 0.0042%): 4.09%
percentage of TREK-1 activity relative to potassium nitrate (mouse TREK-1 (mTREK-1t); Sample Concentration 0.0083%): 6.73%
percentage of TREK-1 activity relative to potassium nitrate (mouse TREK-1 (mTREK-1t); Sample Concentration 0.0167%): 31.4%
percentage of TREK-1 activity relative to potassium nitrate (mouse TREK-1 (mTREK-1t); Sample Concentration […]): 65.22%
Molecule: Cc1ccc(C(C)C)c(O)c1 [Thymol]

activation at 0.0005 % (mouse TREK-1 (mTREK-1t)): 4.06%
activation at 0.001 % (mouse TREK-1 (mTREK-1t)): 1.7%
activation at 0.0021 % (mouse TREK-1 (mTREK-1t)): 2.98%
activation at 0.0042 % (mouse TREK-1 (mTREK-1t)): 3.67%
activation at 0.0083 % (mouse TREK-1 (mTREK-1t)): 6.17%
activation at 0.0167 % (mouse TREK-1 (mTREK-1t)): 13.4%
activation at 0.033 % (mouse TREK-1 (mTREK-1t)): 17.2%
Molecule: CCOC(=O)CC(O)(CC(=O)OCC)C(=O)OCC [Triethyl Citrate]

Molecule: CC(C)[C@@H]1CC[C@@H](C)C[C@@H]1O [d-neomenthol]
cooling threshold [1]: about 25,000 ppb

Fluorescence per Sample concentration (percent activity relative to potassium nitrate) (mouse TREK-1 (mTREK-1t); [2]): 1.77%
Fluorescence per Sample concentration (percent activity relative to potassium nitrate) (mouse TREK-1 (mTREK-1t); [3]): 3.41%
Fluorescence per Sample concentration (percent activity relative to potassium nitrate) (mouse TREK-1 (mTREK-1t); [4]): 18.74%
Molecule: CCCCCCCCC1CCC(=O)O1 (stereo not drawn) [gamma-Dodecalactone]

Fluorescence per Sample concentration (percent activity relative to potassium nitrate) (mouse TREK-1 (mTREK-1t); [2]): 3.21%
Fluorescence per Sample concentration (percent activity relative to potassium nitrate) (mouse TREK-1 (mTREK-1t); [3]): 3.54%
Fluorescence per Sample concentration (percent activity relative to potassium nitrate) (mouse TREK-1 (mTREK-1t); [4]): 9.82%
Fluorescence per Sample concentration (percent activity relative to potassium nitrate) (mouse TREK-1 (mTREK-1t); sample concentration 400 μM, relative to 50 mM potassium nitrate): 15.89%
Molecule: CCCCCCCCCCC1CCC(=O)O1 (stereo not drawn) [gamma-Tetradecalactone]

percentage of TREK-1 activity relative to potassium nitrate (mouse TREK-1 (mTREK-1t); Sample Concentration 0.0005%): 1.85%
percentage of TREK-1 activity relative to potassium nitrate (mouse TREK-1 (mTREK-1t); Sample Concentration 0.0010%): 0.97%
percentage of TREK-1 activity relative to potassium nitrate (mouse TREK-1 (mTREK-1t); Sample Concentration 0.0021%): 2.7%
percentage of TREK-1 activity relative to potassium nitrate (mouse TREK-1 (mTREK-1t); Sample Concentration 0.0042%): 2.03%
percentage of TREK-1 activity relative to potassium nitrate (mouse TREK-1 (mTREK-1t); Sample Concentration 0.0083%): 9.51%
percentage of TREK-1 activity relative to potassium nitrate (mouse TREK-1 (mTREK-1t); Sample Concentration 0.0167%): 24.1%
percentage of TREK-1 activity relative to potassium nitrate (mouse TREK-1 (mTREK-1t); Sample Concentration […]): 98.65%
Molecule: L-Carvone
